Laboratory results from patent US11298358B2, “Combination therapy using ascochlorin derivative” (priority 2017, dated 2022).
pIC50: −log10 of the molar value. Where two headings read alike, the source gives them in different places.

Assays:
[1] = Stability against human liver microsomes; format: in vitro ADME; details: 2 μM compound
Procedure: (§1) Determination of Stability Against Mouse and Human Microsomes
(§2) Pooled human liver microsomes (Cat. 452161; Lot. 23418) were purchased from Corning and pooled male mouse liver microsomes (Cat. M1000; Lot. 1210302) were purchased from Xenotech. Microsomes were stored at −80° C. prior to use. 40 μL of ultra-pure H2O was used instead of NADPH solution in the negative control. The negative control was used to exclude the misleading factor that was resulted from instability of chemical itself. Samples with NADPH were prepared in duplicate. Negative controls were prepared in singlet.
(§3) The reaction was started with the addition of 4 μL of 200 μM compound solution to each master solution to get the final concentration of 2 μM. Verapamil was used as positive control in the assay. Aliquots of 50 μL were taken from the reaction solution at 0, 15, 30, 45 and 60 min. The reaction was stopped by addition of 4 volumes of cold acetonitrile with IS (200 nM imipramine, […] labetalol and 2 μM ketoprofen). Samples were centrifuged at 3,220 g for 40 minutes. Aliquot of 90 μL of the supernatant was mixed with 90 μL of ultra-pure H2O and then was used for LC-MS/MS analysis. Results are shown in Table 3 by indicating remaining % of the test compound after 60 minutes incubation with liver microsomes from human and mouse in the presence of NADPH.

[2] = Stability against mouse liver microsomes; format: in vitro ADME; details: 2 μM compound
Procedure: as §1, §2, §3

A549 = test: Anti-proliferative activity, CellTiterGlo assay, A549; format: cell-based; details: Homo sapiens; A549, 96 hrs incubation; read-out: Antiproliferative activities (IC50) A549
Procedure: (§4) The anti-proliferative activities of the compounds against 6 human cancer cell lines were determined by CellTiterGlo assay kit. All cells were obtained from ATCC and cultured as recommended by the vendor. Cells were assayed in exponential growth phase. Sample solution was prepared by 3-fold serial dilution from 30 mM stock for 10 doses in DMSO. Antiproliferative activities were measured by CellTiterGlo assay kit according to the protocol after cells were incubated for 96 hrs in a 37° C., 5% CO2 incubator.
(§5) On the 4th day of incubation, i) 15 μl reagent (CelltiterGlo assay kit) was added per well and plate was shaken (avoiding light) for 2 mins on a plate shaker, ii) the plate was kept (avoiding light) in room temperature for 30 min, and iii) the luminescence value was recorded by Multiplate reader.

HT29 = test: Anti-proliferative activity, CellTiterGlo assay, HT29; format: cell-based; details: Homo sapiens, HT-29; HT29, 96 hrs incubation; read-out: Antiproliferative activities (IC50) HT29
Procedure: as §4, §5

BxPC-3 = test: Anti-proliferative activity, CellTiterGlo assay, BxPC-3; format: cell-based; details: Homo sapiens; BxPC-3, 96 hrs incubation; read-out: Antiproliferative activities (IC50) BxPC-3
Procedure: as §4, §5

LNCaP = test: Anti-proliferative activity, CellTiterGlo assay, LNCaP; format: cell-based; details: Homo sapiens, 96 hrs incubation, read-out: Antiproliferative activities (IC50) LNCaP
Procedure: as §4, §5

MDA-MB-231 = test: Anti-proliferative activity, CellTiterGlo assay, MDA-MB-231; format: cell-based; details: Homo sapiens; MDA-MB-231, 96 hrs incubation; read-out: Antiproliferative activities (IC50) MDA-MB-231
Procedure: as §4, §5

U87-MG = test: Anti-proliferative activity, CellTiterGlo assay, U87-MG; format: cell-based; details: Homo sapiens, U-87 MG, 96 hrs incubation, read-out: Antiproliferative activities (IC50) U87-MG
Procedure: as §4, §5

CT26 tumor cells = test: Efficacy study in CT26 syngeneic mouse model; format: in vivo; details: for antitumor activity (in words): Cmpd 19 alone
Procedure: An efficacy study was conducted by using Compound 19 (Cmpd 19) with CT26 syngeneic mouse model. Female BALB/c mice (Vital River, Beijing, China) of 7 to 9 weeks old with body weight between 19 and 21 g were used. Each mouse was inoculated subcutaneously on the right flank with CT26 tumor cells (2×10^5) in 0.1 mL of PBS for tumor development. On Day 5 after tumor inoculation, mice were randomized into groups. Each group consisted of 10 tumor-bearing mice. The treatment with Cmpd 19 was then started on Day 5.
As an anti PD-1 antibody, anti-mouse PD-1 antibody (CD279, Clone: RMP1-14, Catalog #: BE0146 from Bio X Cell) was used.
The measurement of tumor size was conducted three times weekly with calipers, and the tumor volume (mm^3) is estimated using the formula: TV=(a×b^2)/2, where “a” and “b” are long and short diameters of a tumor, respectively. The TVs were used for calculation of the tumor growth inhibition (TGI, an indicator of antitumor effectiveness), using formula: TGI=(1−T/C)×100%, where “T” and “C” are the mean relative volumes (% tumor growth) of the tumors in the treated and the control groups. Data were analyzed using GraphPad Software and represented as the mean value±SD in FIG. 3 in which error bars are shown. The p values were assessed using One-Way ANOVA Dunnett test and vehicle control (G1) as control group. A case with p<0.05 was considered as statistically significant.

AMPK in HepG2 cell = details: HepG2 cells, reported in the literature; cited from earlier work
[3] = Solubility in pH4.0 and pH7.4 phosphate buffer solution; details: 2 hr incubation, 25° C.
Procedure: 1) Preparation of Stock Solutions
The stock solutions of test compounds and positive control compound were prepared in DMSO at the concentration of 30 mM. Diclofenac was used as positive control in the assay.
2) Procedures for Solubility Determination
The stock solution of each compound (10 μL) was placed in order into their proper 96-well rack, followed by adding 990 μL of PBS at pH 4.0 and pH 7.4 into each vial of the cap-less Solubility Sample plate. This study was performed in duplicate. One stir stick was added to each vial and then vials were sealed using a molded PTDE/SIL 96-Well Plate Cover. The Solubility Sample plate was transferred to the Thermomixer Comfort plate shaker and incubated at 25° C. for 2 hours with shaking at 1,100 rpm. After 2 hours incubation, stir sticks were removed using a big magnet and all samples from the Solubility Sample plate were transferred into the filter plate. All the samples were filtered by using the vacuum manifold. The filtered samples were diluted with methanol.
3) Samples Analyzed by LC-MS/MS:
The LC system comprised a Shimadzu liquid chromatograph separation system equipped with degasser DGU-20A3, solvent delivery unit LC-20AD, system controller CBM-20A, column oven CTO-10ASVP and CTC Analytics HTC PAL System. Mass spectrometric analysis was performed using an API 4000 instrument from AB Inc (Canada) with an ESI interface.

[4] = G3: Cmpd 19 50 mg/kg p.o. once a day x 18
[5] = G4: Cmpd 19 25 mg/kg p.o. once a day x 18

Question: For `COc1c(Cl)c(C)c(/C=N/O)c(O)c1C/C=C(C)/C=C/[C@@]1(C)[C@H](C)CC[C@](C)(O)[C@@H]1C` [Compound 7, 4-chloro-2-[(2E,4E)-5-[(1R,2R,3S,6R)-3-hydroxy-1,2,3,6-tetramethylcyclohexyl]-3-methylpenta-2,4-dien-1-yl]-6-[(1E)-(hydroxyimino)methyl]-3-methoxy-5-methylphenol], which “Liver microsome stability remaining % after 60 min incubation with NADPH, human LM” value [1] is on record?
Answer: 71%

Question: And the “Liver microsome stability remaining % after 60 min incubation with NADPH, mouse LM” value [2]?
Answer: 71%

Question: And the pIC50 (A549)?
Answer: 5.19

Question: What about the pIC50 (HT29) of the same compound?
Answer: 5.00

Question: And the pIC50 (BxPC-3)?
Answer: 4.89

Question: What about the pIC50 (LNCaP) of the same compound?
Answer: 5.14

Question: And the pIC50 (MDA-MB-231)?
Answer: 5.17

Question: What about the pIC50 (U87-MG) of the same compound?
Answer: 4.88

Question: Which “Liver microsome stability remaining % after 60 min incubation with NADPH, human LM” value [1] does the source give for `CO/N=C/c1c(C)c(Cl)c(OC)c(C/C=C(C)/C=C/[C@@]2(C)[C@H](C)CC[C@](C)(O)[C@@H]2C)c1O` [Compound 14, 4-chloro-2-[(2E,4E)-5-[(1R,2R,3S,6R)-3-hydroxy-1,2,3,6-tetramethylcyclohexyl]-3-methylpenta-2,4-dien-1-yl]-3-methoxy-6-[(1E)-(methoxyimino)methyl]-5-methylphenol] here?
Answer: 99%

Question: And the “Liver microsome stability remaining % after 60 min incubation with NADPH, mouse LM” value [2]?
Answer: 88%

Question: What does the source list for `CO/N=C/c1c(C)c(Cl)c(OC)c(C/C=C(C)/C=C/[C@@]2(C)[C@H](C)CC/C(=N\OCC(=O)O)[C@@H]2C)c1O` [Compound 19, 2-([[(1E,2R,3R,4R)-3-[(1E,3E)-5-[3-chloro-6-hydroxy-2-methoxy-5-[(1E)-(methoxyimino)methyl]-4-methylphenyl]-3-methylpenta-1,3-dien-1-yl]-2,3,4-trimethylcyclohexylidene]amino]oxy)acetic acid]?
Answer: antitumor activity (in words) (CT26 tumor cells; 25 mg/kg p.o.): minor or no antitumor activity; antitumor activity (in words) (CT26 tumor cells; 50 mg/kg p.o.): minor or no antitumor activity; TGI (%) (CT26 tumor cells; [4]): −1.4%; Tumor volume (mm^3, on Day 23) (CT26 tumor cells; [4]): 6,483 ± 310 mm^3; TGI (%) (CT26 tumor cells; [5]): 6.5%; Tumor volume (mm^3, on Day 23) (CT26 tumor cells; [5]): 6,056 ± 689 mm^3

Question: Which “Solubility pH 4.0 PBS” value (pH 4) does the source give for `COc1c(Cl)c(C)c(C=O)c(O)c1C/C=C(C)/C=C/[C@@]1(C)[C@H](C)CCC(=O)[C@@H]1C` [MAC, 4-O-Methy-ascochlorin] here?
Answer: <0.08 μM

Question: And the “Solubility pH 7.4 PBS” value (pH 7.4)?
Answer: 0.07 μM

Question: What about the “AMPK activation in HepG2 cell” value (AMPK in HepG2 cell) of the same compound?
Answer: ability for activating AMPK

Question: With `CN(C)C(=N)N=C(N)N` [Metformin] as the compound, how does the “AMPK activation in HepG2 cell” value (AMPK in HepG2 cell) read?
Answer: only at surprisingly high concentration of mM level

Question: What does the source list for `COc1c(Cl)c(C)c(C=NCC(N)=O)c(O)c1C/C=C(C)/C=C/[C@@]1(C)[C@H](C)CCC(=O)[C@@H]1C` [compound #13 in WO2004/074236]?
Answer: Solubility pH 4.0 PBS ([3]; pH 4.0 phosphate buffer solution): converted to MAC; Solubility pH 7.4 PBS ([3]; pH 7.4 phosphate buffer solution): 0.02 μM
